Laboratory results taken from PubChem BioAssay (NCI).
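Exposure lasted 48 hours, with cells grown in 96-well plates and compounds tested at five concentrations. TGI denotes the concentration required for complete inhibition of growth.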

Key:
Assay in all cases: NCI-60 cell line screen, 48 h
MDA-MB-435 = tested on: MDA-MB-435
DU-145 prostate = tested on: DU-145 prostate
OVCAR-8 ovarian = tested on: OVCAR-8 ovarian
NCI/ADR-RES ovarian = tested on: NCI/ADR-RES ovarian
PC-3 prostate = tested on: PC-3 prostate
SN12C renal = tested on: SN12C renal
NCI-H226 lung = tested on: NCI-H226 lung
RXF 393 renal = tested on: RXF 393 renal
IGROV1 ovarian = tested on: IGROV1 ovarian
OVCAR-5 ovarian = tested on: OVCAR-5 ovarian
SW-620 colon = tested on: SW-620 colon
SK-MEL-28 melanoma = tested on: SK-MEL-28 melanoma
RPMI-8226 leukemia = tested on: RPMI-8226 leukemia
SK-MEL-2 melanoma = tested on: SK-MEL-2 melanoma
786-0 renal = tested on: 786-0 renal
SR leukemia = tested on: SR leukemia
CCRF-CEM leukemia = tested on: CCRF-CEM leukemia
NCI-H522 lung = tested on: NCI-H522 lung
SNB-19 CNS = tested on: SNB-19 CNS
M14 melanoma = tested on: M14 melanoma
HL-60(TB) leukemia = tested on: HL-60(TB) leukemia
HS 578T breast = tested on: HS 578T breast
OVCAR-4 ovarian = tested on: OVCAR-4 ovarian
MALME-3M melanoma = tested on: MALME-3M melanoma
HOP-62 NSCLC = tested on: HOP-62 NSCLC
UACC-62 melanoma = tested on: UACC-62 melanoma
SNB-75 CNS = tested on: SNB-75 CNS
SF-539 CNS = tested on: SF-539 CNS
NCI-H23 lung = tested on: NCI-H23 lung
TK-10 renal = tested on: TK-10 renal
HCT-15 colon = tested on: HCT-15 colon
MOLT-4 leukemia = tested on: MOLT-4 leukemia
SK-OV-3 ovarian = tested on: SK-OV-3 ovarian
SF-295 CNS = tested on: SF-295 CNS
HT29 colon = tested on: HT29 colon
HCC-2998 colon = tested on: HCC-2998 colon
K-562 leukemia = tested on: K-562 leukemia
SK-MEL-5 melanoma = tested on: SK-MEL-5 melanoma
EKVX NSCLC = tested on: EKVX NSCLC
CAKI-1 renal = tested on: CAKI-1 renal
ACHN renal = tested on: ACHN renal
NCI-H460 lung = tested on: NCI-H460 lung
MCF7 breast = tested on: MCF7 breast
U251 CNS = tested on: U251 CNS
KM12 colon = tested on: KM12 colon
OVCAR-3 ovarian = tested on: OVCAR-3 ovarian
HCT-116 colon = tested on: HCT-116 colon
COLO 205 colon = tested on: COLO 205 colon
SF-268 CNS = tested on: SF-268 CNS
MDA-MB-231 breast = tested on: MDA-MB-231 breast
T-47D breast = tested on: T-47D breast
UACC-257 melanoma = tested on: UACC-257 melanoma
A549 NSCLC = tested on: A549 NSCLC
UO-31 renal = tested on: UO-31 renal
LOX IMVI melanoma = tested on: LOX IMVI melanoma
MDA-N = tested on: MDA-N
A498 renal = tested on: A498 renal
HOP-92 NSCLC = tested on: HOP-92 NSCLC

SMILES: C=C1OC(=O)[C@]2([C@@H](/C=C/C)C=CC(=O)[C@H]2O)[C@@H]1O
- TGI (MDA-MB-435): > 100 µM
- TGI (DU-145 prostate): > 100 µM
- TGI (OVCAR-8 ovarian): > 100 µM
- TGI (NCI/ADR-RES ovarian): > 100 µM
- TGI (PC-3 prostate): > 100 µM
- TGI (SN12C renal): > 100 µM
- TGI (NCI-H226 lung): > 100 µM
- TGI (RXF 393 renal): > 100 µM
- TGI (IGROV1 ovarian): > 100 µM
- TGI (OVCAR-5 ovarian): > 100 µM
- TGI (SW-620 colon): > 100 µM
- TGI (SK-MEL-28 melanoma): > 100 µM
- TGI (RPMI-8226 leukemia): > 100 µM
- TGI (SK-MEL-2 melanoma): > 100 µM
- TGI (786-0 renal): > 100 µM
- TGI (SR leukemia): > 100 µM
- TGI (CCRF-CEM leukemia): > 100 µM
- TGI (NCI-H522 lung): > 100 µM
- TGI (SNB-19 CNS): > 100 µM
- TGI (M14 melanoma): > 100 µM
- TGI (HL-60(TB) leukemia): > 100 µM
- TGI (HS 578T breast): > 100 µM
- TGI (OVCAR-4 ovarian): > 100 µM
- TGI (MALME-3M melanoma): > 100 µM
- TGI (HOP-62 NSCLC): > 100 µM
- TGI (UACC-62 melanoma): > 100 µM
- TGI (SNB-75 CNS): > 100 µM
- TGI (SF-539 CNS): > 100 µM
- TGI (NCI-H23 lung): > 100 µM
- TGI (TK-10 renal): > 100 µM
- TGI (HCT-15 colon): > 100 µM
- TGI (MOLT-4 leukemia): > 100 µM
- TGI (SK-OV-3 ovarian): > 100 µM
- TGI (SF-295 CNS): > 100 µM
- TGI (HT29 colon): > 100 µM
- TGI (HCC-2998 colon): > 100 µM
- TGI (K-562 leukemia): > 100 µM
- TGI (SK-MEL-5 melanoma): > 100 µM
- TGI (EKVX NSCLC): > 100 µM
- TGI (CAKI-1 renal): > 100 µM
- TGI (ACHN renal): > 100 µM
- TGI (NCI-H460 lung): > 100 µM
- TGI (MCF7 breast): > 100 µM
- TGI (U251 CNS): > 100 µM
- TGI (KM12 colon): > 100 µM
- TGI (OVCAR-3 ovarian): > 100 µM
- TGI (HCT-116 colon): > 100 µM
- TGI (COLO 205 colon): > 100 µM
- TGI (SF-268 CNS): > 100 µM
- TGI (MDA-MB-231 breast): > 100 µM
- TGI (T-47D breast): > 100 µM
- TGI (UACC-257 melanoma): > 100 µM
- TGI (A549 NSCLC): > 100 µM
- TGI (UO-31 renal): > 100 µM
- TGI (LOX IMVI melanoma): > 100 µM
- TGI (MDA-N): > 100 µM

SMILES: Cc1ccc(S(=O)(=O)N/N=C2\CC3C4C=CC3C2C4)cc1 (stereo unspecified)
- TGI (MDA-MB-435): > 100 µM
- TGI (DU-145 prostate): > 100 µM
- TGI (OVCAR-8 ovarian): > 100 µM
- TGI (NCI/ADR-RES ovarian): > 100 µM
- TGI (PC-3 prostate): > 100 µM
- TGI (SN12C renal): > 100 µM
- TGI (NCI-H226 lung): > 100 µM
- TGI (RXF 393 renal): > 100 µM
- TGI (IGROV1 ovarian): > 100 µM
- TGI (OVCAR-5 ovarian): > 100 µM
- TGI (SW-620 colon): > 100 µM
- TGI (SK-MEL-28 melanoma): > 100 µM
- TGI (SK-MEL-2 melanoma): > 100 µM
- TGI (786-0 renal): > 100 µM
- TGI (CCRF-CEM leukemia): > 100 µM
- TGI (NCI-H522 lung): > 100 µM
- TGI (SNB-19 CNS): > 100 µM
- TGI (M14 melanoma): > 100 µM
- TGI (HL-60(TB) leukemia): > 100 µM
- TGI (HS 578T breast): > 100 µM
- TGI (OVCAR-4 ovarian): > 100 µM
- TGI (MALME-3M melanoma): > 100 µM
- TGI (A498 renal): > 100 µM
- TGI (HOP-62 NSCLC): > 100 µM
- TGI (UACC-62 melanoma): > 100 µM
- TGI (SF-539 CNS): > 100 µM
- TGI (NCI-H23 lung): > 100 µM
- TGI (TK-10 renal): > 100 µM
- TGI (HCT-15 colon): > 100 µM
- TGI (MOLT-4 leukemia): > 100 µM
- TGI (SK-OV-3 ovarian): > 100 µM
- TGI (SF-295 CNS): > 100 µM
- TGI (HT29 colon): > 100 µM
- TGI (HCC-2998 colon): > 100 µM
- TGI (K-562 leukemia): > 100 µM
- TGI (SK-MEL-5 melanoma): > 100 µM
- TGI (EKVX NSCLC): > 100 µM
- TGI (CAKI-1 renal): > 100 µM
- TGI (ACHN renal): > 100 µM
- TGI (NCI-H460 lung): > 100 µM
- TGI (MCF7 breast): > 100 µM
- TGI (U251 CNS): > 100 µM
- TGI (KM12 colon): > 100 µM
- TGI (OVCAR-3 ovarian): > 100 µM
- TGI (HCT-116 colon): > 100 µM
- TGI (COLO 205 colon): > 100 µM
- TGI (SF-268 CNS): > 100 µM
- TGI (MDA-MB-231 breast): > 100 µM
- TGI (T-47D breast): > 100 µM
- TGI (UACC-257 melanoma): > 100 µM
- TGI (A549 NSCLC): > 100 µM
- TGI (UO-31 renal): 40.2 µM
- TGI (HOP-92 NSCLC): > 100 µM
- TGI (LOX IMVI melanoma): > 100 µM
- TGI (MDA-N): > 100 µM
